Key:
Assay in all cases: relative viability (nuclei count vs DMSO), 5 days (fraction); higher = more cells survive
NCI-H3122 = tested on: NCI-H3122
How it was run: (§1)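 For relative viability, nuclei counts in treated wells were divided by those in vehicle wells. Lung cancer cell lines had been pin-tool dosed in 1536-well plates the day after seeding and cultured for 5 days, then fixed and stained in one step (final 0.05% Triton X-100, 1% formaldehyde, 1 ug/ml Hoechst) and imaged at 4×. Doses were one drug alone or a fixed anchor-drug dose plus five library-drug doses (not always all listed) in √10 steps, and values are duplicate-plate medians.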

NCI-H596 = tested on: NCI-H596
How it was run: as §1

PC-3 [JPC-3] = tested on: PC-3 [JPC-3]
How it was run: as §1

NCI-H2170 = tested on: NCI-H2170
How it was run: as §1

LK-2 = tested on: LK-2
How it was run: as §1

NCI-H2228 = tested on: NCI-H2228
How it was run: as §1

NCI-H1944 = tested on: NCI-H1944
How it was run: as §1

NCI-H2009 = tested on: NCI-H2009
How it was run: as §1

LXF-289 = tested on: LXF-289
How it was run: as §1

HOP-62 = tested on: HOP-62
How it was run: as §1

SK-MES-1 = tested on: SK-MES-1
How it was run: as §1

NCI-H727 = tested on: NCI-H727
How it was run: as §1

NCI-H1993 = tested on: NCI-H1993
How it was run: as §1

NCI-H322M = tested on: NCI-H322M
How it was run: as §1

SW 1573 = tested on: SW 1573
How it was run: as §1

HARA = tested on: HARA
How it was run: as §1

ABC-1 = tested on: ABC-1
How it was run: as §1

NCI-H1792 = tested on: NCI-H1792
How it was run: as §1

A-427 = tested on: A-427
How it was run: as §1

EMC-BAC-2 = tested on: EMC-BAC-2
How it was run: as §1

## Nc1ccn([C@@H]2O[C@H](CO)[C@@H](O)[C@@H]2O)c(=O)n1 [Cytarabine] + CS(=O)(=O)N1CCN(Cc2cc3nc(-c4cccc5[nH]ncc45)nc(N4CCOCC4)c3s2)CC1 [Pictilisib] (partner 1 µM)
NCI-H3122; first compound 0.005 µM
  relative viability: 0.629
NCI-H3122; first compound 0.01581 µM
  relative viability: 0.494
NCI-H3122; first compound 0.05 µM
  relative viability: 0.61
NCI-H3122; first compound 0.1581 µM
  relative viability: 0.329
NCI-H3122; first compound 0.5 µM
  relative viability: 0.204
NCI-H596; first compound 0.005 µM
  relative viability: 0.432
NCI-H596; first compound 0.01581 µM
  relative viability: 0.396
NCI-H596; first compound 0.05 µM
  relative viability: 0.355
NCI-H596; first compound 0.1581 µM
  relative viability: 0.277
NCI-H596; first compound 0.5 µM
  relative viability: 0.315
PC-3 [JPC-3]; first compound 0.005 µM
  relative viability: 0.695
PC-3 [JPC-3]; first compound 0.01581 µM
  relative viability: 0.673
PC-3 [JPC-3]; first compound 0.05 µM
  relative viability: 0.647
PC-3 [JPC-3]; first compound 0.1581 µM
  relative viability: 0.448
PC-3 [JPC-3]; first compound 0.5 µM
  relative viability: 0.479
NCI-H2170; first compound 0.01581 µM
  relative viability: 0.257
NCI-H2170; first compound 0.05 µM
  relative viability: 0.235
NCI-H2170; first compound 0.1581 µM
  relative viability: 0.191
NCI-H2170; first compound 0.5 µM
  relative viability: 0.192
LK-2; first compound 0.005 µM
  relative viability: 0.531
LK-2; first compound 0.01581 µM
  relative viability: 0.476
LK-2; first compound 0.05 µM
  relative viability: 0.426
LK-2; first compound 0.1581 µM
  relative viability: 0.23
LK-2; first compound 0.5 µM
  relative viability: 0.235
NCI-H2228; first compound 0.005 µM
  relative viability: 0.29
NCI-H2228; first compound 0.01581 µM
  relative viability: 0.188
NCI-H2228; first compound 0.05 µM
  relative viability: 0.399
NCI-H2228; first compound 0.1581 µM
  relative viability: 0.109
NCI-H2228; first compound 0.5 µM
  relative viability: 0.146
NCI-H1944; first compound 0.005 µM
  relative viability: 0.29
NCI-H1944; first compound 0.01581 µM
  relative viability: 0.267
NCI-H1944; first compound 0.05 µM
  relative viability: 0.236
NCI-H1944; first compound 0.1581 µM
  relative viability: 0.201
NCI-H1944; first compound 0.5 µM
  relative viability: 0.189
NCI-H2009; first compound 0.005 µM
  relative viability: 0.907
NCI-H2009; first compound 0.01581 µM
  relative viability: 0.678
NCI-H2009; first compound 0.05 µM
  relative viability: 0.81
NCI-H2009; first compound 0.1581 µM
  relative viability: 0.487
NCI-H2009; first compound 0.5 µM
  relative viability: 0.224
LXF-289; first compound 0.005 µM
  relative viability: 0.716
LXF-289; first compound 0.01581 µM
  relative viability: 0.752
LXF-289; first compound 0.05 µM
  relative viability: 0.679
LXF-289; first compound 0.1581 µM
  relative viability: 0.288
LXF-289; first compound 0.5 µM
  relative viability: 0.304
HOP-62; first compound 0.005 µM
  relative viability: 0.741
HOP-62; first compound 0.01581 µM
  relative viability: 0.469
HOP-62; first compound 0.05 µM
  relative viability: 0.315
HOP-62; first compound 0.1581 µM
  relative viability: 0.118
HOP-62; first compound 0.5 µM
  relative viability: 0.0794
SK-MES-1; first compound 0.005 µM
  relative viability: 0.333
SK-MES-1; first compound 0.01581 µM
  relative viability: 0.305
SK-MES-1; first compound 0.05 µM
  relative viability: 0.227
SK-MES-1; first compound 0.1581 µM
  relative viability: 0.194
SK-MES-1; first compound 0.5 µM
  relative viability: 0.205
NCI-H727; first compound 0.005 µM
  relative viability: 0.45
NCI-H727; first compound 0.01581 µM
  relative viability: 0.237
NCI-H727; first compound 0.05 µM
  relative viability: 0.211
NCI-H727; first compound 0.1581 µM
  relative viability: 0.222
NCI-H727; first compound 0.5 µM
  relative viability: 0.203
NCI-H1993; first compound 0.005 µM
  relative viability: 0.84
NCI-H1993; first compound 0.01581 µM
  relative viability: 0.815
NCI-H1993; first compound 0.05 µM
  relative viability: 0.765
NCI-H1993; first compound 0.1581 µM
  relative viability: 0.712
NCI-H1993; first compound 0.5 µM
  relative viability: 0.525
NCI-H322M; first compound 0.005 µM
  relative viability: 0.443
NCI-H322M; first compound 0.01581 µM
  relative viability: 0.492
NCI-H322M; first compound 0.05 µM
  relative viability: 0.368
NCI-H322M; first compound 0.1581 µM
  relative viability: 0.279
NCI-H322M; first compound 0.5 µM
  relative viability: 0.308
SW 1573; first compound 0.005 µM
  relative viability: 0.362
SW 1573; first compound 0.01581 µM
  relative viability: 0.378
SW 1573; first compound 0.05 µM
  relative viability: 0.317
SW 1573; first compound 0.1581 µM
  relative viability: 0.134
SW 1573; first compound 0.5 µM
  relative viability: 0.106
HARA; first compound 0.005 µM
  relative viability: 0.316
HARA; first compound 0.01581 µM
  relative viability: 0.368
HARA; first compound 0.05 µM
  relative viability: 0.163
HARA; first compound 0.1581 µM
  relative viability: 0.106
HARA; first compound 0.5 µM
  relative viability: 0.117
ABC-1; first compound 0.005 µM
  relative viability: 0.939
ABC-1; first compound 0.01581 µM
  relative viability: 0.679
ABC-1; first compound 0.05 µM
  relative viability: 0.698
ABC-1; first compound 0.1581 µM
  relative viability: 0.635
ABC-1; first compound 0.5 µM
  relative viability: 0.325
NCI-H1792; first compound 0.005 µM
  relative viability: 0.314
NCI-H1792; first compound 0.01581 µM
  relative viability: 0.207
NCI-H1792; first compound 0.05 µM
  relative viability: 0.216
NCI-H1792; first compound 0.1581 µM
  relative viability: 0.174
NCI-H1792; first compound 0.5 µM
  relative viability: 0.188
A-427; first compound 0.005 µM
  relative viability: 0.576
A-427; first compound 0.01581 µM
  relative viability: 0.419
A-427; first compound 0.05 µM
  relative viability: 0.314
A-427; first compound 0.1581 µM
  relative viability: 0.178
A-427; first compound 0.5 µM
  relative viability: 0.147
EMC-BAC-2; first compound 0.005 µM
  relative viability: 0.42
EMC-BAC-2; first compound 0.01581 µM
  relative viability: 0.494
EMC-BAC-2; first compound 0.05 µM
  relative viability: 0.366
EMC-BAC-2; first compound 0.1581 µM
  relative viability: 0.246
EMC-BAC-2; first compound 0.5 µM
  relative viability: 0.165

Reference: the supplement of paper PMC10307832
